The structures appear in SMILES notation.

This note sets out measurements from patent publication US5500442A, “Cyclobut-3-ene-1,2-dione derivatives as smooth muscle relaxants” (American Home Products Corporation, priority 1994, dated 1996).

Test [1] has as its system Isolated Rat Bladder. Kind of test: Bladder smooth muscle relaxing activity: inhibition of KCl-enhanced contractions in isolated rat bladder strips. It is filed as cell-based, Sprague-Dawley rats. The note with it: 15 mM KCl; for IC50: 37 deg. C, read-out: IC50 of Bladder Contraction; for inhibition at up to 30 µM: at 30 μM, value in parentheses, read-out: % Inhibition of Bladder Contraction at 30 μM. An excerpt: Bladder smooth muscle relaxing activity of the compounds of this invention was established in accordance with standard pharmaceutically accepted test procedures in representative compounds as follows:
Sprague-Dawley rats (150-200 g) are rendered unconscious by CO2 asphyxiation and then euthanized by cervical dislocation. The bladder is removed into warm (37 deg. C) physiological salt solution (PSS) of the following composition (mM): NaCl, 118.4; KCl, 4.7; CaCl2, 2.5; […]; NaHCO3, 24.9; KH2 PO4, 1.2; glucose, 11.1; EDTA, 0.023; gassed with […]; pH 7.4. The bladder is opened and then cut into strips 1-2 mm in width and 7-10 mm in length. The strips are subsequently suspended in a 10 ml tissue bath under an initial resting tension of 1.5 g. The strips are held in place by two surgical clips one of which is attached to fixed hook while the other is attached to an isometric force transducer. […] The carbachol is then washed out and the tissue allowed to relax to its resting level of activity. Following 1 further 30 min period of recovery an additional 15 mM KCl are introduced into the tissue bath. This increase in KCl concentration results in a large increase in the amplitude of spontaneous contractions (and initiation of contractions in previously quiescent strips) superimposed upon a small increase in basal tone. Following stabilization of this enhanced level of contractile activity, incremental increases in the concentration of test compound or vehicle are introduced into the tissue bath. Contractile activity is measured for each compound or vehicle concentration during the last rain of a 30 rain challenge.
Isometric force developed by the bladder strips is measured using a […] to elicit 50% inhibition of pre-drug contractile activity (IC50 concentration) is calculated from this concentration-response curve. The maximum percentage inhibition of contractile activity evoked by a test compound is also recorded for concentrations of test compound<or equal to 30 uM.

Test [2] has as its system Isolated Rat Aortic Tissue. Kind of test: Aortic smooth muscle relaxing activity: inhibition of KCl-evoked contracture in isolated rat aortic rings. It is filed as cell-based, Sprague-Dawley rats. The note with it: isolated rat thoracic aorta rings, 25 mM KCl; read-out: IC50 of Aorta Contraction. An excerpt:
Aortic smooth muscle relaxing activity of the compounds of this invention was established in accordance with standard pharmaceutically accepted test procedures in representative compounds as follows:
Sprague-Dawley rats (150-200 g) are rendered unconscious by CO2 asphyxiation and then euthanized by cervical dislocation. The thoracic aorta is removed into warm (37 deg. C.) Krebs-Henseleit solution. The aorta is cleaned of fat and loose adventitia and cut into rings 3-4 mm in width. The rings are subsequently suspended between two stainless steel wire tissue holders in a 10 ml tissue bath. One wire tissue holder is attached to fixed hook while the other is attached to an isometric force transducer. Resting tension is set at 1.0 g. The tissues are allowed to recover for a period of 60 mins prior to beginning the experiment. The tissues are challenged with 25 mM KCl to elicit a contracture. The tissue are then washed repeatedly with fresh Krebs-Henseleit solution over a period of 30 rains and allowed to recover to baseline tension. 25 mM KCl is then introduced into the tissue bath to evoke a contracture that is allowed to stabilize for not less than 45 rains. Increasing concentrations of test compound or vehicle are then added to the tissue bath in a cumulative fashion.
Isometric force developed by the aortic rings is measured using force transducer and recorded on a polygraph. The percentage inhibition of contractile force evoked by each concentration of a given test compound is used to generate a concentration-response curve. The concentration required to elicit 50% inhibition of pre-drug contractile activity (IC50 concentration) is calculated from this concentration-response curve. The maximum percentage inhibition of contractile activity evoked by a test compound is also recorded for concentrations of test compound<or equal to 30 uM.

One may read the IC50 as the midpoint of a concentration-inhibition curve. `CC1(C)Oc2ccc(-c3c(N)c(=O)c3=O)cc2[C@@H](N2Cc3ccccc3C2=O)[C@@H]1O` (relative stereo) [Example 4, 4-Amino-3-[trans-3-hydroxy-2,2-dimethyl-4-(1-oxo-1,3-dihydroisoindol-2-yl)-chroman-6-yl]-cyclobut-3-ene-1,2-dione]: the IC50 in test [1] worked out at 190 ± 20 nM; in test [2] it was 170 ± 40 nM.

On to `Cc1c(-c2ccc3c(c2)[C@@H](N2Cc4ccccc4C2=O)[C@H](O)C(C)(C)O3)c(=O)c1=O` (relative stereo) [Example 9, 3-[trans-3-Hydroxy-2,2-dimethyl-4-(1-oxo-1,3-dihydro-isoindol-2-yl)-chroman-6-yl]-4-methyl-cyciobut-3-ene-1,2-dione], for which the IC50 in test [1] was determined as 110 nM; in test [2] it was 15 ± 7 nM.

As for `CNc1c(-c2ccc3c(c2)[C@@H](N2Cc4ccccc4C2=O)[C@H](O)C(C)(C)O3)c(=O)c1=O` (relative stereo) [Example 7, 3-[trans-3-Hydroxy-2,2-dimethyl-4-(1-oxo-1,3-dihydroisoindol-2-yl)-chroman-6-yl]-4-methylamino-cyclobut-3-ene-1,2-dione], the half-inhibitory concentration (IC50) in test [1] turned out to be 1620 nM; in test [2], 830 ± 240 nM.

`CC1(C)Oc2ccc(-c3c(O)c(=O)c3=O)cc2[C@@H](N2Cc3ccccc3C2=O)[C@@H]1O` (relative stereo) [Example 8, 3-Hydroxy-4-[trans-3-hydroxy-2,2-dimethyl-4-(1-oxo-1,3-dihydroisoindol-2-yl)-chroman-6-yl]-cyclobut-3-ene-1,2-dione]: the IC50 in test [1] stood at 21900 nM.

Broadly, the inhibition is how much of the control response was suppressed. In the case of `CC1(C)Oc2ccc(-c3c(N4CCCC4)c(=O)c3=O)cc2[C@@H](N2Cc3ccccc3C2=O)[C@@H]1O` (relative stereo) [Example 6, 3-[trans-3-Hydroxy-2,2-dimethyl-4-(1-oxo-1,3-dihydroisoindol-2-yl)-chroman-6-yl]-4-pyrrolindin-1-yl-cyclobut-3-ene-1,2-dione], the inhibition at up to 30 µM in test [1] amounted to 33%.

Consider `CC(C)Oc1c(-c2ccc3c(c2)[C@@H](N2Cc4ccccc4C2=O)[C@H](O)C(C)(C)O3)c(=O)c1=O` (relative stereo) [Example 3, 3-[trans-3-hydroxy-2,2-dimethyl-4-(1-oxo-1,3-dihydroisoindol-2-yl)-chroman-6-yl]-4-isopropoxy-cyclobut-3-ene-1,2-dione], for which the figures for the half-inhibitory concentration (IC50) in test [1] and in test [2] were 10100 ± 390 nM and 1160 ± 210 nM, respectively.

With `CC1(C)Oc2ccc(-c3c(NCCO)c(=O)c3=O)cc2[C@@H](N2Cc3ccccc3C2=O)[C@@H]1O` (relative stereo) [Example 5, 3-[trans-3-Hydroxy-2,2-dimethyl-4-(1-oxo-1,3-dihydroisoindol-2-yl),-chroman-6-yl]-4-(2-hydroxy-ethylamino)-cyclobut-3-ene-1,2-dione], the inhibition at up to 30 µM in test [1] came to 14%.
